Results published in patent US20030166528A1, “Antifungal compound” (priority 2000, published 2003).
Read-outs that look alike come from different tables or passages of the source. Non-standard residues stand in square brackets, D forms with d. Residues, ends and D or L forms follow the SMILES beside them. 1Nal = N[C@@H](Cc1cccc2ccccc12)C(=O)O; 2Thi = N[C@@H](Cc1cccs1)C(=O)O; Nva = CCC[C@H](N)C(=O)O

Experiments:
C. albicans SLU-1 [1] = type: cell-based; conditions: radial diffusion assay
Procedure: XMP.676 was tested for in vitro antifungal activity in radial diffusion assays against C. albicans SLU-1 generally according to Examples 2 and 3 of U.S. Pat. No. 5,858,974.

[2] = type: in vitro ADME; conditions: for half-life: 37° C., 250 μg/mL, read-out: biological half life
Procedure: XMP.676 was also tested for stability using a bioassay generally according to Example 5 of U.S. Pat. No. 5,858,974, wherein the peptide is incubated with SDB, RPMI, mouse serum or human serum for varying amounts of time and the resulting serum-treated product is tested for retention of antifungal activity against C. albicans SLU-1 in a FACScan assay as follows.
A solution of XMP.676 (0.5 mg/mL) was mixed with medium or fresh mouse serum or fresh human serum at a 1:1 ratio to make a 250 μg/mL solution. The resulting mixture was incubated at 37° C. Small sample volumes were removed from the incubation mixture at specific times and placed at −20° C.
Antifungal activity of the peptide/serum (or peptide/media) samples was tested as follows. Mid-log phase C. albicans were suspended in SDB at a concentration of about 1×10^6 CFU/ml. The suspension was aliquoted in 1 mL portions into polystyrene tubes. The peptide/serum mixture sample were thawed and 50 μL of each sample was aliquoted into each tube and incubated at 37° C. for various times. The cells were then pelleted and resuspended in a solution of 10 μg/mL propidium iodide/PBS and incubated for 5 minutes. Propidium iodide is a fluorescent exclusionary dye that is only taken up by the cell when cell death has occurred. Cells were analyzed for fluorescence on a FACScan instrument using cells treated with 70% ethanol as the control for 100% death, and untreated cells for zero death.

[3] = in vivo
in vivo = conditions: DBA/2, mouse, iv, well tolerated dose
C. albicans [4] = type: cell-based; conditions: on C. albicans, with fluconazole and amphotericin-B
Procedure: (§1) In addition, checkerboard assays were used to evaluate synergy, additivity or antagonism between XMP.676 and fluconazole, amphotericin B or itraconazole. These assays were carried out on both C. albicans and A. fumigatus. Results from these experiments were used to calculate fractional inhibitory concentration (FIC) values. […] At lower concentrations of both compounds, additional synergy may be observed.

A. fumigatus = type: cell-based; conditions: on A. fumigatus, with tested concentrations of amphotericin-B and itraconazole
Procedure: as §1

[5] = type: in vivo, rabbits
Procedure: Increasing doses of various […], or via intraperitoneal injection, to determine the maximum dose of peptide that could be administered without causing observable symptoms such as respiratory distress and loss of righting reflex. […] […] When administered via rapid intravenous injection, doses of XMP.676 higher than 2.5 mg/kg were not well tolerated, but slow injection increased the well tolerated dose two-fold to 5.0 mg/kg. When administered intraperitoneally, XMP.676 was well tolerated at doses up to and including 15.0 mg/kg. […] XMP.676 was also tested in cytarabine-treated conscious rabbits (wherein 30 mg/kg cytarabine was administered intravenously daily for 5 days prior to administration of XMP.676).

Aspergillus fumigatus = type: in vivo, mice
Procedure: XMP.676 was additionally tested in cyclosporin-A (CSA) immunosuppressed mice systemically infected with about 5×10^5 CFU Aspergillus fumigatus. Specifically, mice were immunosuppressed by IP injection of 50 mg/kg CSA at day-1. CSA injections continued daily for 9 consecutive days (to day 8). On Day 0, animals received the second CSA injection immediately followed by an inoculum of A. fumigatus in a 0.25 mL volume via a lateral tail injection. Treatment with XMP.676 began one hour following fungal challenge at doses of 0.3, 1.0, 3.0 or 10.0 mg/kg IP, was repeated one day later, and then continued q.o.d. for a total of 7 treatments (Days 0, 1, 3, 5, 7, 9, 11). One group was treated with saline as a control, and another group received 1.0 mg/kg amphotericin B for comparison. Mortality was recorded for 28 days. […] XMP.676 is also be tested in the absence of immunosuppression with CSA.

C. albicans [6] = type: in vivo, mice; conditions: 5 mg/kg twice daily for 14 days, intraperitoneal; preliminary test
C. albicans SLU-1 [7] = type: in vivo, DBA/2 mice
Procedure: XMP.676 was tested for in vivo antifungal activity in mice with systemic C. albicans infection, as measured by effect on mortality, generally according to Example 4 of U.S. Pat. No. 5,858,974.
Briefly described, DBA/2 mice were inoculated with an IV injection of approximately 7×10^4 CFU C. albicans SLU-1. Desired doses of XMP.676 were prepared from a stock solution of 1 mg/mL XMP.676 in a 0.9% saline solution. Treatment with XMP.676, other antifungal agents or saline via either IV or IP routes was initiated immediately after fungal challenge. Subsequent treatments were administered q.o.d. through day 15. Mortality was recorded daily for 28 days.

Compound: CCC[C@H](NC(=O)[C@H](CCC(N)=O)NC(=O)[C@@H](NC(=O)[C@H](CCC)NC(=O)[C@H](Cc1cccc2ccccc12)NC(=O)[C@H](N)CCCCN)[C@@H](C)CC)C(=O)N[C@H](C(=O)N[C@@H](Cc1cccs1)C(=O)N[C@H](CCCCN)C(=O)N[C@H](CCCCN)C(N)=O)C(C)C [XMP.676, LysD-(Naph-1-Ala)-Norvaline-Ile-Gln-Norvaline-Val-(Thienyl-Ala)-LysD-LysD] (H-[dK][1Nal][Nva]IQ[Nva]V[2Thi][dK][dK]-NH2)
- lowest minimum inhibitory concentration (MIC) observed (C. albicans SLU-1 [1]): 171 pmol
- stability in microbial media ([2]; all types of microbial media examined (SDB, RPMI)): excellent stability
- half-life ([2]; human serum): > 3 h
- half-life ([2]; mouse serum): > 3 h
- well tolerated dose ([3]; DBA/2, mouse, iv): 5.0 mg/kg
- well tolerated doses ([3]; mouse, ip): ≤ 15.0 mg/kg
- MTD (in vivo): 2.5 mg/kg
- synergy, additivity or antagonism (FIC) (C. albicans [4]): strong additivity or synergy
- synergy, additivity or antagonism (FIC) (A. fumigatus): additivity
- adverse events ([5]; 2.5 mg/kg IV, 30 minute single infusion): did not result in any significant adverse events
- adverse events ([5]; doses higher than 2.5 mg/kg IV infusion): resulted in mortality
- reduction in mortality (Aspergillus fumigatus; 1.0 mg/kg IP q.o.d., p=0.0003, 28 days): highly statistically significant reduction in mortality
- reduction in mortality (Aspergillus fumigatus; 3.0 mg/kg IP): no reduction in mortality
- reduction in mortality (Aspergillus fumigatus; 10.0 mg/kg IP): no reduction in mortality
- reduction in mortality compared to saline control (C. albicans [6]): did not provide a reduction in mortality
- reduction in mortality (C. albicans SLU-1 [7]; 0.5 mg/kg IV q.o.d., p<0.001, 28 days): statistically significant reduction in mortality
- reduction in mortality (C. albicans SLU-1 [7]; 1.0 mg/kg IV q.o.d., p=0.019, 28 days): reduction in mortality
- reduction in mortality (C. albicans SLU-1 [7]; 2.5 mg/kg IV q.o.d., all five experiments (p=0.005, p<0.001, p<0.001, p=0.002, p=0.015)): statistically significant reduction in mortality
- reduction in mortality (C. albicans SLU-1 [7]; 5 mg/kg IP q.o.d. or q.d., three of four experiments (p=0.0001, p=0.012, p=0.018)): statistically significant reduction in mortality
- protection, slow injection relative to rapid bolus injection (C. albicans SLU-1 [7]; IV, slow (approximately 20 seconds) vs rapid (less than about 5 seconds), 2.5 mg/kg in FIG. 2): greater delay in onset of death and greater protection
- benefit of intravenous treatment q.o.d. versus q.d. or b.i.d. (C. albicans SLU-1 [7]; intravenous): greater benefit
